Experimental data taken from PubChem BioAssay (NCI).
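Method: 48-hour compound exposure of cells in 96-well plates, five concentrations, linear interpolation of endpoints. Definition used: TGI = concentration required for complete inhibition of growth.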

Key:
Test in all cases: inhibition of tumour cell growth, NCI panel, 48 h
786-0 renal = tested on: 786-0 renal
A498 renal = tested on: A498 renal
A549 NSCLC = tested on: A549 NSCLC
ACHN renal = tested on: ACHN renal
CAKI-1 renal = tested on: CAKI-1 renal
CCRF-CEM leukemia = tested on: CCRF-CEM leukemia
DU-145 prostate = tested on: DU-145 prostate
EKVX NSCLC = tested on: EKVX NSCLC
HCC-2998 colon = tested on: HCC-2998 colon
HCT-116 colon = tested on: HCT-116 colon
HCT-15 colon = tested on: HCT-15 colon
HL-60(TB) leukemia = tested on: HL-60(TB) leukemia
HOP-62 NSCLC = tested on: HOP-62 NSCLC
HOP-92 NSCLC = tested on: HOP-92 NSCLC
HS 578T breast = tested on: HS 578T breast
HT29 colon = tested on: HT29 colon
IGROV1 ovarian = tested on: IGROV1 ovarian
K-562 leukemia = tested on: K-562 leukemia
LOX IMVI melanoma = tested on: LOX IMVI melanoma
M14 melanoma = tested on: M14 melanoma
MALME-3M melanoma = tested on: MALME-3M melanoma
MCF7 breast = tested on: MCF7 breast
MDA-MB-231 breast = tested on: MDA-MB-231 breast
MDA-MB-435 = tested on: MDA-MB-435
MDA-N = tested on: MDA-N
MOLT-4 leukemia = tested on: MOLT-4 leukemia
NCI-H23 lung = tested on: NCI-H23 lung
NCI-H460 lung = tested on: NCI-H460 lung
NCI-H522 lung = tested on: NCI-H522 lung
NCI/ADR-RES ovarian = tested on: NCI/ADR-RES ovarian
OVCAR-3 ovarian = tested on: OVCAR-3 ovarian
OVCAR-4 ovarian = tested on: OVCAR-4 ovarian
OVCAR-5 ovarian = tested on: OVCAR-5 ovarian
OVCAR-8 ovarian = tested on: OVCAR-8 ovarian
PC-3 prostate = tested on: PC-3 prostate
RPMI-8226 leukemia = tested on: RPMI-8226 leukemia
RXF 393 renal = tested on: RXF 393 renal
SF-268 CNS = tested on: SF-268 CNS
SF-295 CNS = tested on: SF-295 CNS
SF-539 CNS = tested on: SF-539 CNS
SK-MEL-2 melanoma = tested on: SK-MEL-2 melanoma
SK-MEL-28 melanoma = tested on: SK-MEL-28 melanoma
SK-MEL-5 melanoma = tested on: SK-MEL-5 melanoma
SK-OV-3 ovarian = tested on: SK-OV-3 ovarian
SNB-19 CNS = tested on: SNB-19 CNS
SNB-75 CNS = tested on: SNB-75 CNS
SR leukemia = tested on: SR leukemia
SW-620 colon = tested on: SW-620 colon
T-47D breast = tested on: T-47D breast
TK-10 renal = tested on: TK-10 renal
U251 CNS = tested on: U251 CNS
UACC-257 melanoma = tested on: UACC-257 melanoma
UO-31 renal = tested on: UO-31 renal
COLO 205 colon = tested on: COLO 205 colon
KM12 colon = tested on: KM12 colon
NCI-H226 lung = tested on: NCI-H226 lung
SN12C renal = tested on: SN12C renal
UACC-62 melanoma = tested on: UACC-62 melanoma
BT-549 breast = tested on: BT-549 breast

Measured: TGI

O=C1c2cc3c(cc2CC12Cc1ccc4c(c1C2=O)CCC4)CCCC3 (stereo not given)
not listed: COLO 205 colon | KM12 colon | NCI-H226 lung | SN12C renal | UACC-62 melanoma | BT-549 breast
> 100 µM: all other assays above

O=C1/C(=C/c2ccco2)NC(=S)N1CN1CCCCC1
86 µM: OVCAR-4 ovarian
not listed: CAKI-1 renal | HCC-2998 colon | HL-60(TB) leukemia | NCI-H460 lung | RXF 393 renal | SF-539 CNS | T-47D breast | UACC-257 melanoma | BT-549 breast
> 100 µM: all other assays above

CCOC(=O)C12OC(OCC)(CC1(OCC)OCC)C1(CC1)C2=O (stereo not given)
not listed: HL-60(TB) leukemia | HS 578T breast | NCI-H522 lung | RPMI-8226 leukemia | RXF 393 renal | SR leukemia | T-47D breast | UACC-62 melanoma
> 100 µM: all other assays above

C=CCNC(=S)N/C=C(\C#N)C(N)=O
not listed: HOP-92 NSCLC | TK-10 renal | BT-549 breast
> 100 µM: all other assays above
